Results from PubChem BioAssay (NCI).
Where “and” joins values, the source holds several entries; their conditions need not be identical. Identical values can stand only once.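 Compound exposure: 48 hours, 5 concentrations, 96-well plates. Here, GI50 denotes the concentration required for 50% inhibition of growth. Definition used: TGI = concentration required for complete inhibition of growth.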

Experiments:
Test in all cases: inhibition of tumour cell growth, NCI panel, 48 h
[1] = test system: M14 melanoma
[2] = test system: OVCAR-5 ovarian
[3] = test system: U251 CNS

Row | Structure (SMILES) | TGI [1] [µM] | TGI [2] [µM] | TGI [3] [µM] | GI50 [1] | GI50 [2]
1 | COC(=O)/C=C/[C@H]1[C@H](C)N1S(=O)(=O)c1ccc(C)cc1 (stereo not given in full) | > 100 | > 100 | > 100 | – | –
2 | Cc1csc(CP(=O)(OC(C)C)OC(C)C)n1 | > 100 | > 100 | > 100 | – | –
3 | O=Cc1ccc(Oc2c3ccccc3nc3ccccc23)cc1 | 10.7 | 16.7 | 21.9 | – | –
4 | CC(=O)Oc1ccc(C2SCc3nc4ccccc4n32)cc1 (stereo not given) | > 100 | > 100 | > 100 | – | –
5 | COc1ccc2oc(=O)c(-c3nc4ccccc4s3)cc2c1 | > 58.3 | > 100 | > 49.6 | – | –
6 | CCOc1ccnc2c(OC)c(C)c3nc4ccccc4nc3c12 | > 100 | > 100 | > 100 | – | –
7 | COC(=O)CCC(=O)c1ccc2c(c1)CC1(Cc3ccccc3C1)C2 | > 100 | > 100 | > 100 | – | –
8 | COc1ccc(-c2c(C#N)c(N)n(C3OC(COC(C)=O)C(OC(C)=O)C(OC(C)=O)C3OC(C)=O)c(=S)c2C#N)cc1 (stereo not given) | > 100 | > 100 | > 100 | > 100 µM and 28.4 µM | > 100 µM and 38.4 µM
9 | O=[N+]([O-])c1cc(C2ON=C(c3ccccc3)N2C23CC4CC(CC(C4)C2)C3)ccc1Cl (stereo not given) | > 100 | > 100 | > 100 | – | –
10 | COC(=O)Cc1c(-c2c(CC(=O)OC)c3ccccc3n2C2OC(COC3OC(COC(C)=O)C(OC(C)=O)C(OC(C)=O)C3OC(C)=O)C(O)C(O)C2O)[nH]c2ccccc12 (stereo not given) | > 100 | > 100 | > 100 | – | –
11 | CNC(=S)c1nnsc1N | > 100 | > 100 | > 100 | – | –
12 | Cc1cn(C2CC(/[N+]([O-])=N\Nc3ccc([N+](=O)[O-])cc3)C(CO)O2)c(=O)[nH]c1=O (stereo not given) | > 100 | > 100 | > 100 | – | –
13 | COC1=C2C[C@](OC)(C#CC=CC#CC2O)CC1(C)C (stereo not given in full) | – | > 100 | > 100 | – | –
14 | CC1(C)C/C=C\CCC(O)C(O)CCC(C)(C)C1=O (stereo not given) | – | > 100 | > 100 | – | –
15 | COc1ccc(-c2c3c(n(C4OC(COC(C)=O)C(OC(C)=O)C(OC(C)=O)C4OC(C)=O)c(=S)c2C#N)CCCC3)cc1 (stereo not given) | > 100 | > 100 | > 100 | – | –
16 | O=CC1C(=O)Nc2nc3ccccc3n2C1c1ccccc1 (stereo not given) | 34 | 95.7 | 29.1 | – | –
17 | COc1ccc(C(CC(=O)c2ccc(O)cc2)C(C(=O)c2ccc(O)cc2)C(c2ccc(OC)cc2)C2C(=O)NC(=S)NC2=O)cc1 (stereo not given) | 39.3 | 49.6 | 72.3 | – | –

Row | Structure (SMILES) | TGI [1] [µM] | TGI [2] [µM] | TGI [3] [µM] | GI50 [1] | GI50 [2]
18 | CCOC(=O)C(C(=O)OCC)C(=S)NC1OC(COC(C)=O)C(OC(C)=O)C(OC(C)=O)C1OC(C)=O (stereo not given) | > 100 | > 100 | > 100 | – | –
19 | [B]C(=O)NC(CC(C)C)C(=O)NC1c2ccsc2C(=O)C1O (stereo not given) (tested in a mixture with another compound) | > 100 | > 100 | > 100 | – | –
20 | CCOC(=O)C(/C=N/C(N)=S)=C(/O)c1ccccc1 | > 100 | > 100 | > 100 | – | –
21 | O=C(Nc1ccccn1)c1cc2c(cc1Cl)Sc1nccn1S2(=O)=O | > 100 | > 100 | > 100 | – | –
22 | CC(C)N=C(NC#N)NS(=O)(=O)c1cnccc1NC1CCCCCCC1 | > 100 | > 100 | > 100 | – | –
23 | COC(=O)c1cc(OCc2cc(OCc3ccc(Br)cc3)cc(OCc3ccc(Br)cc3)c2)cc(OCc2cc(OCc3ccc(Br)cc3)cc(OCc3ccc(Br)cc3)c2)c1 | > 100 | > 100 | > 100 | – | –
24 | COc1ccc(/C=C2/C(=O)C(c3ccccc3)N(c3ccccc3)C2=O)cc1OC (stereo not given) | > 10 | > 10 | > 10 | – | –
25 | CN1CCN2CCN(C)CCN(CC1)CC2 | > 100 | > 100 | > 100 | – | –
26 | COc1ccc(/C=C2\NC(=S)N(CN3CCOCC3)C2=O)cc1 | > 100 | > 100 | > 100 | – | –
27 | C[C@H](OC(=O)/C=C/c1ccc(O)c(O)c1)[C@H](C)OC(=O)/C=C/c1ccc(O)c(O)c1 | 23.5 | 33.1 | > 100 | – | –
28 | Cc1nc2c(ccc3[nH]c4ccccc4c32)s1 | 50.2 | > 100 | 54.3 | – | –
29 | C/C(=N\Nc1nc2ccccc2[nH]1)c1ccc2ccccc2n1 | 6.47 | 10 | 14.3 | – | –
30 | CN1CCN(C(=S)N(C(=O)c2ccc(Cl)cc2)C2CCCCC2)CC1 | > 100 | > 100 | > 100 | – | –
31 | CCN(CC)C(=O)N1CN(c2ccccc2)C2(CCN(CCCC3(c4ccc(F)cc4)OCCO3)CC2)C1=O | > 100 | – | 30.2 | – | –
32 | O=C1C=C(NCCc2ccc(O)cc2)C(=O)C=C1NCCc1ccc(O)cc1 | – | > 100 | 92.5 | – | –
33 | CSc1c(C#N)c(=O)n(N)c2n[nH]c(C)c12 | – | – | > 100 | – | –
